According to patent US20220233743A1, “WOUND CLOSURE ENHANCEMENT METHODS AND MATERIALS VIA MANIPULATION OR AUGMENTATION OF LIPIN-1” (Board of Supervisors of Louisiana State University and …, priority 2019, published 2022):

How the values were obtained:
Assay type in all cases: cell-based, mouse
BMDMs [1] = experiment: IL-4 mediated wound-healing gene expression, qRT-PCR; details: 20 ng/ml IL-4 for 4 h
Description: Bone marrow-derived macrophages were treated with IL-4 (R&D Biosystems, 404-ML-050) for 4 h and mRNA was extracted from the cultured cells using RNeasy Mini Kit (Qiagen—74106) as per manufacturer's instructions. cDNA template was generated using qScript cDNA SuperMix (Quantabio, 95048). qRT-PCR was performed in a Biorad iCycler with SsoAdvanced Universal SYBER Green SuperMix (Biorad, 172-5271). Primers (FIG. 42) were obtained from the Harvard primer bank database. Primer specificity was confirmed using primer BLAST and by verifying the presence of a single peak in melt curve analysis. Results were expressed as fold change relative to IL-4 treated WT cells by 2^−ΔΔCt method after normalizing with GAPDH.
Pro-inflammatory response in macrophages is influenced by lipin-1, but if lipin-1 contributes to wound healing responses by macrophages is unknown. The inventors have previously generated lipin-1^mEnzyKO mice that express a truncated lipin-1 protein lacking lipin-1 enzymatic activity but retain transcriptional co-regulatory function in myeloid cells. […] BMDMs from lipin-1^mEnzyKO, lipin-1^mKO, and appropriate littermate controls were stimulated with 20 ng/ml of IL-4 for 4 h. mRNA was isolated and analyzed for the expression of several canonical wound-healing associated genes: Arg1, Socs2, Ccl17, Mannr, Il10, and Pparg. […]

BMDMs [2] = experiment: Phagocytosis assay with pHrodo green zymosan particles; details: IL-4 stimulated (20 ng/ml, 24 h) lipin-1mKO BMDMs vs wild type BMDMs
Description: Bone marrow-derived macrophages (5×10^5 cells) were cultured on sterile coverslips in culture wells and treated with 20 ng/ml IL-4 for 24 h. Culture medium was then replaced with DMEM, containing pHrodo™ green Zymosan A BioParticles® (Thermo Fisher Scientific, P35365) such that each well receives 0.1 mg zymosan particles. BMDMs were allowed to phagocytose for 1 h under dark incubation and then the assay was stopped by cold PBS wash. Cells seeded on coverslips were then fixed using 4% formaldehyde. Cells on cover slips were washed three times and then stained with DAPI slowfade (Invitrogen, S36938). Immunofluorescent images were taken using Olympus BX51 and evaluated using Image J (1.50a) analysis software. Phagocytic efficiency for each image was calculated by dividing the total number of fluorescent beads by the total number of nuclei in the fluorescent image, thus giving average number of beads per cell. Experiment was performed 3 times with 4 random images per group (n=12).
Macrophages with a wound healing phenotype can have increased phagocytic capabilities. The inventors investigated the ability of BMDMs to phagocytize zymosan beads. The inventors mock treated or IL-4 treated BMDMs from lipin-1^mKO or litter mate controls for 24 h. […] The inventors then imaged using fluorescent microscopy and quantified average number of particles per cell.

BMDMs [3] = experiment: Mitochondrial bioenergetics, Seahorse OCR after IL-4
Description: BMDMs collected from lipin-1^mEnzyKO, lipin-1^mKO, and littermate control mice were seeded at a density of 150,000 cells per well on XF24 cell culture microplates and allowed to incubate for 4 h. Experiments were conducted in XF assay medium containing 25 mM glucose, 2 mM 1-glutamine, and 1 mM sodium pyruvate and analyzed using a Seahorse XFe 24 extracellular flux analyzer (Agilent Technologies). Where indicated, the following were injected: ATP-synthesis inhibitor oligomycin (Oligo; 1 μM), carbonyl cyanide 4-(trifluoromethoxy)phenylhydrazone (FCCP) (2 μM) to uncouple ATP synthesis, rotenone (100 nM) to block complex I, and antimycin A (1 μM) (Sigma-Aldrich) to block complex III. Oxygen consumption rate (OCR) was analyzed using Wave Desktop software (Agilent Technologies).
IL-4 stimulation polarizes macrophages toward a proresolving macrophage and elicits increased (3-oxidation and oxidative phosphorylation. In hepatocytes and skeletal muscle cells, lipin-1 promotes β-oxidation and oxidative phosphorylation. The inventors wanted to investigate if lipin-1 promoted oxidative phosphorylation in macrophages in response to IL-4. The inventors used BMDMs from lipin-1^mEnzyKO (EKO), lipin-1^mKO (KO), and littermate controls (wild type [WT]) to determine the contribution of the enzymatic activity and infer the contribution of the transcriptional coregulatory activity toward induction of oxidative phosphorylation. BMDMs from EKO, KO, and WT mice were stimulated with 40 ng/ml IL-4 for 4 h, and cellular bioenergetics were analyzed by Seahorse extracellular flux analyzer (Agilent Technologies). There were no differences in respiration between unstimulated WT and EKO macrophages (FIGS. 1 and 3). […] The inventors next tested if lipin-1 transcriptional coregulatory activity contributes to oxidative metabolism in macrophages. WT and lipin-1 KO macrophages were stimulated with IL-4 for 4 h, and cellular bioenergetics were analyzed. There was no difference in respiration between unstimulated WT and lipin-1 KO BMDMs (FIGS. 4 and 6).

IL-4: cytokine IL-4 (R&D Biosystems, 404-ML-050) used to stimulate macrophages; optional component of the claimed composition
expression of IL-4 elicited genes (BMDMs [1]; lipin-1mEnzyKO BMDMs vs WT BMDMs): equivalent expression | IL-4 elicited gene expression (Arg1, Socs2, Ccl17, Mannr, Il10, Pparg) (BMDMs [1]; lipin-1mKO BMDMs vs wild type or lipin-1mEnzyKO): significantly lower | zymosan particles per cell (BMDMs [2]): fewer particles per cell | OCR in response to IL-4 stimulation (BMDMs [3]; EKO (lipin-1mEnzyKO) BMDMs, 40 ng/ml IL-4 for 4 h): equivalent increase in OCR | OCR in response to IL-4 stimulation (BMDMs [3]; WT BMDMs, 40 ng/ml IL-4 for 4 h): increased OCR | OCR in response to IL-4 stimulation (BMDMs [3]; lipin-1 KO BMDMs, IL-4 for 4 h): failed to increase OCR
